These are literature values, as cited in patent US12397030B2, “Polyphenol compositions and uses thereof” (METAGENICS, INC., priority 2019, dated 2025).

Each structure is given as a SMILES string.

For data set [1] the following is noted: humans.
Data set [2] relates to ATP-binding cassette transporter A1 (ABCA1). The note with it: enhances reverse cholesterol transport.

For the molecule `O=c1oc2c(O)c(O)cc3c(=O)oc4c(O)c(O)cc1c4c23` [ellagic acid], in data set [1], the “time by which no longer detected” value is at most 5 h and the “time to appearance following consumption” value was about 30 min. In data set [1] (after consumption), the elimination half-life is 42.6 min.

Take `O=c1oc2cc(O)ccc2c2ccccc12` [urolithin B]: in data set [2], the “ABCA1 expression in macrophages” value was “upregulation”.
